The source of these data is patent publication US7951800B2, “Anti-infective agents” (Abbott Laboratories, Inc., priority 2006, dated 2011).

Series [1] concerns HCV 1b-N replicon cells. Description: passage of HCV 1b-N replicon cells with compounds alone or in combination, absence of neomycin. As to conditions: individual compounds or agents at 10 to 20-fold above their respective EC50. The format is cell-based. As for the experimental part: The effect of compound I on HCV replicon was evaluated alone or in combination with other anti-HCV agents. […] The EC50 values represent the 50% inhibitory concentrations of these compounds/agents in replicon cell assays.
For orientation: Replicon systems follow genome replication, usually without infectious particles.

Series [2] relates to HCV replicon. In words: HCV replicon assays. The format is cell-based. The method, then:
The 50% inhibitory concentration of an HCV inhibitor (EC50) can also be evaluated using HCV replicon assays as described in Ikeda et al., J. VIROL., 76:2997-3006 (2002), and Blight et al., SCIENCE, 290:1972-1974 (2000), with the following modifications. Replicon cells are plated at 3×10^3 cells per well in 96-well plate in DMEM medium containing 5% fetal calf serum. At day 1, culture medium is removed and replaced with fresh medium containing eight serial 2-fold dilutions of the compound of interest. The final concentration of DMSO in medium is 0.5%. The untreated control culture is treated in an identical manner except no inhibitor is added to the medium. Plates are incubated in a CO2 incubator at 37° C. On Day 4, 100 μl lysis buffer (RTL) (Qiagen) is added to each well after removal of culture medium. RNA is purified according to manufacturer's recommendations (Qiagen RNAeasy) and eluted in 200 μl of water. The HCV RNA level is quantified from a portion (5 μl out of 200 μl) of the purified RNA by real-time RT-PCR method. The primers and probe are derived from specific sequence in the 5′UTR region. RT-PCR reaction is performed at 48° C. for 30 min, followed by 40 cycles set to 95° C., 15 s; 54° C., 30 s; and 72° C., 40 s. […]

Series [3] in a line: liver concentrations after oral dosing in rats. Format: in vivo, Male Sprague-Dawley derived rats. Particulars: rat; for concentration at 1 h / concentration at 12 h / concentration at 24 h: male, Sprague-Dawley, liver, 5 mg/kg oral; for EC50 multiple: ratio of post 24-hour liver concentration over EC50 value: EC50 from HCV replicon assays. As for the experimental part: Compounds I, II and III were prepared as a solution in a DMSO: PEG-400 vehicle at a concentration of 5 mg/mL shortly before oral dosing. Male Sprague-Dawley derived rats, weighing 250-350 grams, were obtained from Charles River Laboratories, Inc. (Wilmington, Mass.). The animals were fasted overnight prior to dosing and throughout the study period, but were allowed water ad libitum. Animals were allowed chow ad libitum post 12 hr. Each study used a group of 3 rats. Each rat received a 5 mg/kg (1 mL/kg) oral dose of compound I, II or III administered by gavage. At selected time points after dosing, groups of three rats were euthanized with CO2 and exsanguinated by cardiac puncture. The entire liver tissue from each animal was removed and placed in a labeled plastic container. Groups of rats were sacrificed 1, 12 and 24 hours after drug administration. The liver samples were stored on ice (about 4° C.), and then assayed for the concentration of each compound using high performance liquid chromatographic procedures.

On to `CS(=O)(=O)NCc1csc2c1S(=O)(=O)N=C(c1c(O)c3ccccc3n(NC3CCC3)c1=O)N2` [compound I, N-[(3-{1-[(cyclobutyl)amino]-4-hydroxy-2-oxo-1,2-dihydro-quinolin-3-yl}-1,1-dioxo-1,4-dihydro-1λ^6-thieno[2,3-e][1,2,4]thiadiazin-7-yl)methyl]methanesulfonamide], for which, in series [1], the “HCV RNA levels during treatment” value was “significantly reduced” and the “elimination of HCV RNA from replicon cells” value was “none of them eliminated the HCV RNA”. Further, in series [2], the “higher potency in the inhibition of HCV replication as compared to 1-Benzyl-4-hydroxy-3-[7-(hydroxymethyl)-1,1-dioxido-4H-thieno[2,3-e][1,2,4]thiadiazin-3-yl]quinolin-2(1H)-one” value was “about 100 fold”. Further, in series [2] (Hepatitis C virus, read-out: 50% inhibitory concentration (EC50), HCV replicon assays), the EC50 is about 2.5 nM. In series [3], this compound yielded a concentration at 1 h of 18700 ng/g, a concentration at 12 h of 19200 ng/g and a concentration at 24 h of 2420 ng/g. Moreover, in series [3] (24 hours after oral dosing), the “liver concentration of compound I relative to those of compounds II and III” value is given as 8-20 times; the “EC50 multiple: ratio of post 24-hour liver concentration over EC50 value” (shortened to “EC50 multiple: ratio”) is listed as “more than 1.800 fold”.

As for `CS(=O)(=O)NCc1csc2c1S(=O)(=O)N=C(c1c(O)c3ccccc3n(NCC3CC3)c1=O)N2` [compound II, N-[(3-{1-[(cyclopropylmethyl)amino]-4-hydroxy-2-oxo-1,2-dihydroquinolin-3-yl}-1,1-dioxido-4H-thieno[2,3-e][1,2,4]thiadiazin-7-yl)methyl]methanesulfonamide], in series [3], the concentration at 1 h is 18900 ng/g, the concentration at 12 h was found to be 7920 ng/g and the concentration at 24 h was found to be 120 ng/g. Also, in series [3] (24 hours after oral dosing), the “EC50 multiple: ratio” value is recorded as “significantly lower than that of compound I”.

In series [3], `CS(=O)(=O)Nc1ccc2c(c1)S(=O)(=O)N=C(c1c(O)c3ccccc3n(NC3CCC3)c1=O)N2` [compound III, N-{3-[1-(cyclobutylamino)-4-hydroxy-2-oxo-1,2-dihydroquinolin-3-yl]-1,1-dioxido-4H-1,2,4-benzothiadiazin-7-yl}methanesulfonamide] registered a concentration at 1 h of 8790 ng/g, a concentration at 12 h of 4140 ng/g and a concentration at 24 h of 280 ng/g. Besides, in series [3] (24 hours after oral dosing), the “EC50 multiple: ratio” value is recorded as “significantly lower than that of compound I”.

With `CCC[C@H](NC(=O)C1[C@H]2CCC[C@H]2CN1C(=O)[C@@H](NC(=O)[C@@H](NC(=O)c1cnccn1)C1CCCCC1)C(C)(C)C)C(=O)C(=O)NC1CC1` (stereo partly shown) [compound VX-950], in series [1], the “HCV RNA levels during treatment” value is “significantly reduced” and the “elimination of HCV RNA from replicon cells” value is “none of them eliminated the HCV RNA”.
